Key:
[1] = (Z)-Endoxifen recovery by solvent evaporation (XRPD); assay type: physicochemical
Procedure: For the single-solvent evaporations, 10 mg (Z)-endoxifen was dissolved in 1 ml of various solvents in which (Z)-endoxifen has >1000 mg/ml solubility (“very soluble”), 100-1000 mg/ml solubility (“freely soluble”), 33-100 mg/ml solubility (“soluble”), and 10-33 mg/ml solubility (“sparingly soluble”). The solutions were stirred for approximately 60 minutes, then left to evaporate. Following (Z)-endoxifen dissolution to a concentration of 10 mg/ml, all solvents generated clear solutions in which the (Z)-endoxifen completely dissolved. The solutions were evaporated at either room temperature (17-25° C.) or elevated temperature (40-60° C.). All evaporations were performed at 1 atmosphere pressure. The solids obtained from the evaporations were analyzed by XRPD.
For the multi-solvent evaporations, 40 mg (Z)-endoxifen was dissolved in either ethanol/water or THF/acetone mixtures. For the water/ethanol evaporations, 20 ml of 70/30 ethanol/water (v/v) mixtures (achieving concentrations of 2 mg/ml (Z)-endoxifen). The white suspensions were incubated for 3 days at 50° C., yielding clear solutions which were then left to evaporate at elevated temperatures. These analyses were repeated over 4 replicates. For the THF/acetone evaporations, 60 mg (Z)-endoxifen were dissolved in 1.5 ml of a multi-solvent system containing tetrahydrofuran (THF) and acetone in a 40/60 (v/v) mixture. The resultant clear solution was filtered and left to evaporate at room temperature.

[2] = Precipitation of (Z)-endoxifen by antisolvent addition, PAD and PAI (XRPD); assay type: physicochemical
Procedure: Further (Z)-endoxifen crystallizations were performed utilizing antisolvents to affect precipitation. (Z)-endoxifen was dissolved in various solvents to obtain suspensions at room temperature that were then stirred overnight and filtered with a nylon filter (0.22 μm) to obtain a clear stock solution. Two different types of precipitation experiments were performed with the resulting clear stock solutions. For precipitation by antisolvent addition to a saturated solution (PAD) experiments, antisolvent was added dropwise to the clear stock solution during stirring at room temperature at a ratio of 1:5 or 1:10 stock solution:antisolvent. For precipitation by saturated solution addition to an antisolvent (PAI) experiments, the clear stock solution was added drop wise to antisolvent under magnetic stirring at room temperature at a ratio of 1:5 or 1:10 stock solution:antisolvent. All obtained precipitates from PAD and PAI experiments were filtered under vacuum and analyzed by XRPD. […] After storage if there was no precipitate, the solutions were evaporated at room temperature. All obtained precipitates were filtered under vacuum and analyzed by XRPD. PAD and PAI experiments were also performed on the clear solutions with a concentration of 20 mg/ml (Z)-endoxifen recovered from the solubility experiments, described in EXAMPLE 19. The clear solutions recovered were (Z)-endoxifen solutions in ethyl acetate, butyl acetate, 4-met-2-pentanone, and toluene. The procedure for the PAI and PAD was the same as described above.

[3] = PAD--GRAD-EVRT, butyl acetate 0.15 mL, butyl methyl ether 1.5 mL, RT
[4] = PAD--GRAD-EVRT, tetrahydrofuran 0.03 mL sat, acetone 0.3 mL, RT
[5] = PAD-GRAD-EVRT, ethyl acetate 0.15 mL, butyl methyl ether 1.5 mL, RT
[6] = PAD-GRAD-EVRT, toluene 0.15 mL, butyl methyl ether 1.5 mL, RT
[7] = PAD, butyl acetate 0.15 mL, 20 mg/mL, antisolvent heptane 0.75 mL, RT
[8] = PAD, butyl acetate 0.15 mL, 20 mg/mL, antisolvent heptane 1.5 mL, RT
[9] = PAD, ethyl acetate 0.15 mL, 20 mg/mL, antisolvent heptane 0.75 mL, RT
[10] = PAD, ethyl acetate 0.15 mL, 20 mg/mL, antisolvent heptane 1.5 mL, RT
[11] = PAD, tetrahydrofuran 0.03 mL sat, heptane 0.15 mL, RT
[12] = PAD, tetrahydrofuran 0.03 mL sat, water 0.15 mL, RT
[13] = PAD, tetrahydrofuran 0.03 mL sat, water 0.3 mL, RT
[14] = PAD, toluene 0.15 mL, 20 mg/mL, antisolvent heptane 1.5 mL, RT
[15] = PAI-GRAD-EVRT, tetrahydrofuran 0.03 mL sat, acetone 0.3 mL, RT
[16] = PAI, tetrahydrofuran 0.03 mL sat, heptane 0.15 mL, RT
[17] = PAI, tetrahydrofuran 0.03 mL sat, water 0.3 mL, RT

CC/C(=C(\c1ccc(O)cc1)c1ccc(OCCNC)cc1)c1ccccc1 [(Z)-endoxifen, (Z)-4-(1-(4-(2-(methylamino)ethoxy)phenyl)-2-phenylbut-1-enyl)phenol]
Output Main phase [phase] ([1]; EVHT: butyl acetate, 10 mg/mL, evaporation at 60° C.): Form I | Output Main phase [phase] ([1]; EVHT: dimethylformamide, 10 mg/mL, evaporation at 60° C.): amorphous | Output Main phase [phase] ([1]; EVHT: ethanol/water 70/30 v/v, 2 mg/mL, evaporation at 60° C. (4 replicates)): amorphous | Output Main phase [phase] ([1]; EVHT: methyl isobutyl ketone, 10 mg/mL, evaporation at 60° C.): amorphous | Output Main phase [phase] ([1]; EVHT: toluene, 10 mg/mL, evaporation at 60° C.): amorphous | Output Main phase [phase] ([1]; EVRT: 2-propanol, 10 mg/mL, evaporation at RT): Form IV | Output Main phase [phase] ([1]; EVRT: acetone, 10 mg/mL, evaporation at RT): Form I | Output Main phase [phase] ([1]; EVRT: acetonitrile, 10 mg/mL, evaporation at RT): Form I | Output Main phase [phase] ([1]; EVRT: ethyl acetate, 10 mg/mL, evaporation at RT): Form I | Output Main phase [phase] ([1]; EVRT: methanol, 10 mg/mL, evaporation at RT): Form I | Output Main phase [phase] ([1]; EVRT: tetrahydrofuran/acetone 40/60 v/v, 40 mg/mL, evaporation at RT): Form I | Output Crystallinity [high/low/SC/oriented] [2, 3]: low | Output Main phase [phase] [2, 3]: Form I | Output Main phase [phase] [2, 4]: Form XII | Output Traces [phase] [2, 4]: Form I | Output Main phase [phase] ([2]; PAD-GRAD-EVRT, dimethylformamide 0.15 mL sat, butyl methyl ether 1.5 mL, RT): Form I | Output Crystallinity [high/low/SC/oriented] [2, 5]: low | Output Main phase [phase] [2, 5]: Form I | Output Crystallinity [high/low/SC/oriented] [2, 6]: low | Output Main phase [phase] [2, 6]: Form VIII | Output Main phase [phase] ([2]; PAD-GRAD, butyl acetate 0.15 mL, butyl methyl ether 1.5 mL, 25 to −20 °C, ramp not controlled, 1 d): no solid | Output Main phase [phase] ([2]; PAD-GRAD, dimethylformamide 0.15 mL sat, butyl methyl ether 1.5 mL, RT to −20 °C, 1 d): no solid | Output Main phase [phase] ([2]; PAD-GRAD, ethyl acetate 0.15 mL, butyl methyl ether 1.5 mL, 25 to −20 °C, ramp not controlled, 1 d): no solid | Output Main phase [phase] ([2]; PAD-GRAD, methyl isobutyl ketone 0.15 mL, butyl methyl ether 1.5 mL, 25 to −20 °C, ramp not controlled, 1 d): no solid | Output Main phase [phase] ([2]; PAD-GRAD, tetrahydrofuran 0.03 mL sat, acetone 0.3 mL, RT to −20 °C, 1 d): no solid | Output Main phase [phase] ([2]; PAD-GRAD, toluene 0.15 mL, butyl methyl ether 1.5 mL, 25 to −20 °C, ramp not controlled, 1 d): no solid | Output Main phase [phase] ([2]; PAD, butyl acetate 0.15 mL, 20 mg/mL, antisolvent butyl methyl ether 0.75 mL, RT): no solid | Output Main phase [phase] ([2]; PAD, butyl acetate 0.15 mL, 20 mg/mL, antisolvent butyl methyl ether 1.5 mL, RT): no solid | Output Crystallinity [high/low/SC/oriented] [2, 7]: low | Output Main phase [phase] [2, 7]: no solid | Output Crystallinity [high/low/SC/oriented] [2, 8]: low | Output Main phase [phase] [2, 8]: Form IX | Output Main phase [phase] ([2]; PAD, dimethylformamide 0.15 mL sat, butyl methyl ether 0.75 mL, RT): no solid | Output Main phase [phase] ([2]; PAD, dimethylformamide 0.15 mL sat, butyl methyl ether 1.5 mL, RT): no solid | Output Main phase [phase] ([2]; PAD, dimethylformamide 0.15 mL sat, water 0.75 mL, RT): amorphous | Output Main phase [phase] ([2]; PAD, ethyl acetate 0.15 mL, 20 mg/mL, antisolvent butyl methyl ether 0.75 mL, RT): no solid | Output Main phase [phase] ([2]; PAD, ethyl acetate 0.15 mL, 20 mg/mL, antisolvent butyl methyl ether 1.5 mL, RT): no solid | Output Crystallinity [high/low/SC/oriented] [2, 9]: low | Output Main phase [phase] [2, 9]: no solid | Output Crystallinity [high/low/SC/oriented] [2, 10]: low | Output Main phase [phase] [2, 10]: Form IX | Output Main phase [phase] ([2]; PAD, methyl isobutyl ketone 0.15 mL, 20 mg/mL, antisolvent butyl methyl ether 0.75 mL, RT): no solid | Output Main phase [phase] ([2]; PAD, methyl isobutyl ketone 0.15 mL, 20 mg/mL, antisolvent butyl methyl ether 1.5 mL, RT): no solid | Output Main phase [phase] ([2]; PAD, methyl isobutyl ketone 0.15 mL, 20 mg/mL, antisolvent heptane 0.75 mL, RT): no solid | Output Main phase [phase] ([2]; PAD, methyl isobutyl ketone 0.15 mL, 20 mg/mL, antisolvent heptane 1.5 mL, RT): no solid | Output Main phase [phase] ([2]; PAD, tetrahydrofuran 0.03 mL sat, acetone 0.15 mL, RT): no solid | Output Main phase [phase] ([2]; PAD, tetrahydrofuran 0.03 mL sat, acetone 0.3 mL, RT): no solid | Output Crystallinity [high/low/SC/oriented] [2, 11]: low | Output Main phase [phase] [2, 11]: Form XIX | Output Crystallinity [high/low/SC/oriented] [2, 12]: low | Output Main phase [phase] [2, 12]: no solid | Output Crystallinity [high/low/SC/oriented] [2, 13]: low | Output Main phase [phase] [2, 13]: Form IV | Output Main phase [phase] ([2]; PAD, toluene 0.15 mL, 20 mg/mL, antisolvent butyl methyl ether 0.75 mL, RT): no solid | Output Main phase [phase] ([2]; PAD, toluene 0.15 mL, 20 mg/mL, antisolvent butyl methyl ether 1.5 mL, RT): no solid | Output Main phase [phase] ([2]; PAD, toluene 0.15 mL, 20 mg/mL, antisolvent heptane 0.75 mL, RT): no solid | Output Crystallinity [high/low/SC/oriented] [2, 14]: low | Output Main phase [phase] [2, 14]: Amorphous | Output Main phase [phase] ([2]; PAI-GRAD-EVRT, dimethylformamide 0.15 mL sat, butyl methyl ether 1.5 mL, RT): Form I | Output Main phase [phase] [2, 15]: Form XII | Output Traces [phase] [2, 15]: Form XIII | Output Main phase [phase] ([2]; PAI-GRAD, dimethylformamide 0.15 mL sat, butyl methyl ether 1.5 mL, RT to −20 °C, 1 d): no solid | Output Main phase [phase] ([2]; PAI-GRAD, tetrahydrofuran 0.03 mL sat, acetone 0.3 mL, RT to −20 °C, 3 d): no solid | Output Main phase [phase] ([2]; PAI, dimethylformamide 0.15 mL sat, butyl methyl ether 1.5 mL, RT): no solid | Output Main phase [phase] ([2]; PAI, dimethylformamide 0.15 mL sat, water 0.75 mL, RT): Form I | Output Main phase [phase] ([2]; PAI, tetrahydrofuran 0.03 mL sat, acetone 0.3 mL, RT): no solid | Output Crystallinity [high/low/SC/oriented] [2, 16]: low | Output Main phase [phase] [2, 16]: Form XIX | Output Crystallinity [high/low/SC/oriented] [2, 17]: low | Output Main phase [phase] [2, 17]: Form IV
